What was measured:
[1] = molecular target: T1, alcohol oxidase from Pichia pastoris (Komagataella phaffii, UniProt P04842); assay: Characteristics of the Pichia enzyme (Km, inhibitors, substrate reactivity); format: biochemical
T1 construct: preparation and isolation of pure crystalline alcohol oxidase from Pichia pastoris; endogenous in cells; homogenate supernatant dialysed to give crystalline enzyme
T1 sequence (P04842 1-663): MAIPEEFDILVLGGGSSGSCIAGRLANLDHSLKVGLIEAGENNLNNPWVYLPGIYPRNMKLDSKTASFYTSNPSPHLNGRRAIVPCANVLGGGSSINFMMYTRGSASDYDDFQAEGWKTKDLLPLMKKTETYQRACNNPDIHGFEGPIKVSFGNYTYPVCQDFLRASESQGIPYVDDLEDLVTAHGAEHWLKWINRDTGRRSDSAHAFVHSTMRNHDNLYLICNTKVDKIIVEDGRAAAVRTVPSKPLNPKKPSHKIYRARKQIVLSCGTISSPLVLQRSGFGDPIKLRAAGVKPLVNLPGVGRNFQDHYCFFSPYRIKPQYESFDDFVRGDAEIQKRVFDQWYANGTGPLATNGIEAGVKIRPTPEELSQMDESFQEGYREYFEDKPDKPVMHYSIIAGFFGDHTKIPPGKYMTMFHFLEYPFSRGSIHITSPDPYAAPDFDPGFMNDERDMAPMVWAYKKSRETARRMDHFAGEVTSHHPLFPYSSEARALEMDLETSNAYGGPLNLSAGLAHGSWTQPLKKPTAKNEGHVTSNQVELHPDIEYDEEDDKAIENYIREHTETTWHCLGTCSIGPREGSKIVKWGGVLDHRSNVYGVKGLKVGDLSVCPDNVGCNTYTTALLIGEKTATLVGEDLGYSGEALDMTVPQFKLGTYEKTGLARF

[2] = substrate: CO; assay: purified protein, by the assay type; conditions: other: apparent Michaelis constant; pH 6.5

CO [Methanol]
Km ([1]; read-out: Km for methanol, apparent Michaelis constant): 4 mM

CC=O [acetaldehyde]
reactivity of the alcohol oxidase toward substrate [1]: not reactive

B1: alcohol oxidase from Pichia pastoris (Komagataella phaffii GS115) (protein)
chain: MAIPEEFDILVLGGGSSGSCIAGRLANLDHSLKVGLIEAGENNLNNPWVYLPGIYPRNMKLDSKTASFYTSNPSPHLNGRRAIVPCANVLGGGSSINFMMYTRGSASDYDDFQAEGWKTKDLLPLMKKTETYQRACNNPDIHGFEGPIKVSFGNYTYPVCQDFLRASESQGIPYVDDLEDLVTAHGAEHWLKWINRDTGRRSDSAHAFVHSTMRNHDNLYLICNTKVDKIIVEDGRAAAVRTVPSKPLNPKKPSHKIYRARKQIVLSCGTISSPLVLQRSGFGDPIKLRAAGVKPLVNLPGVGRNFQDHYCFFSPYRIKPQYESFDDFVRGDAEIQKRVFDQWYANGTGPLATNGIEAGVKIRPTPEELSQMDESFQEGYREYFEDKPDKPVMHYSIIAGFFGDHTKIPPGKYMTMFHFLEYPFSRGSIHITSPDPYAAPDFDPGFMNDERDMAPMVWAYKKSRETARRMDHFAGEVTSHHPLFPYSSEARALEMDLETSNAYGGPLNLSAGLAHGSWTQPLKKPTAKNEGHVTSNQVELHPDIEYDEEDDKAIENYIREHTETTWHCLGTCSIGPREGSKIVKWGGVLDHRSNVYGVKGLKVGDLSVCPDNVGCNTYTTALLIGEKTATLVGEDLGYSGEALDMTVPQFKLGTYEKTGLARF
Km [2]: 4 mM
